Measurements reported in US12389907B2, “Compounds with nematicidal activity to pinewood nematode Bursaphelenchus xylophilus” (KOREA ADVANCED INSTITUTE OF SCIENCE AND TECHNOLOGY, priority 2023, dated 2025).

System: pinewood nematode (Bursaphelenchus xylophilus)
Test: Nematode screening: mortality of pinewood nematode in 96-well plate, propidium iodide staining
Assay type: cell-based
Details: compound dissolved in polar solvent DMSO, nematode treated with the solution
Description: Nematode Screening Method and Test Results
(1) A pinewood nematode sample was prepared so that 130 to 150 nematodes were present per 40 μL.
(2) The pinewood nematode sample was dispensed into a 96-well plate by 40 μL. Triplicates were prepared for each sample.
(3) Each compound was dispensed into each well containing the pinewood nematode sample. The tested compounds were (±)-orthosporin and 6,8-dihydroxy-3-methylisocoumarin, and each compound was dissolved in 1% DMSO solvent at a concentration of 20 μM. The chemical formulas of the compounds are illustrated in FIG. 1.
(4) After 120 hours, 20 μL of 50 μM propidium iodide was dispensed into each well containing the sample, and then shaking incubation was performed at RT for 15 minutes.
(5) The mortality rate was evaluated by counting only dead pinewood nematodes stained red in the total number of nematodes using a fluorescence microscope.

Structure (SMILES)	effect of killing the nematode
CC(O)Cc1cc2cc(O)cc(O)c2c(=O)o1 (racemic) [Chemical Formula 3, 6,8-dihydroxy-3-(2-hydroxypropyl)-1H-isochromen-1-one]	have the effect of killing the nematode
Cc1cc2cc(O)cc(O)c2c(=O)o1 [Chemical Formula 2, 6,8-dihydroxy-3-methyl-1H-isochromen-1-one]	have the effect of killing the nematode
